Test results from PubChem BioAssay (NCI).
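Method: 48-hour compound exposure of cells in 96-well plates, five concentrations, linear interpolation of endpoints. The concentration for full growth arrest is given as TGI.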

Experiments:
Experiment in all cases: DTP human tumour cell line panel, 48 h
786-0 renal = test system: 786-0 renal
A549 NSCLC = test system: A549 NSCLC
CAKI-1 renal = test system: CAKI-1 renal
COLO 205 colon = test system: COLO 205 colon
DMS 273 small cell lung = test system: DMS 273 small cell lung
NCI-H460 lung = test system: NCI-H460 lung
NCI-H522 lung = test system: NCI-H522 lung
OVCAR-3 ovarian = test system: OVCAR-3 ovarian
SNB-78 CNS = test system: SNB-78 CNS
UO-31 renal = test system: UO-31 renal
LXFL 529 NSCLC = test system: LXFL 529 NSCLC
HS 578T breast = test system: HS 578T breast

Row | Structure (SMILES) | TGI (786-0 renal) | TGI (A549 NSCLC) | TGI (CAKI-1 renal) | TGI (COLO 205 colon) | TGI (DMS 273 small cell lung) | TGI (NCI-H460 lung) | TGI (NCI-H522 lung) | TGI (OVCAR-3 ovarian) | TGI (SNB-78 CNS) | TGI (UO-31 renal) | TGI (LXFL 529 NSCLC) | TGI (HS 578T breast)
1 | CC(=O)Nc1ccc(C(=O)N2N=C(C)/C(=C/c3cccc([N+](=O)[O-])c3)C2=O)cc1 | > 100 µM | > 100 µM | > 100 µM | > 100 µM | > 100 µM | > 100 µM | > 100 µM | > 100 µM | > 100 µM | > 100 µM | – | –
2 | CN1Cc2c(nc(-c3ccc(Br)cc3)c[n+]2[O-])N(C)C1 | > 100 µM | > 100 µM | > 100 µM | > 100 µM | > 100 µM | > 100 µM | > 100 µM | > 100 µM | > 100 µM | > 100 µM | > 100 µM | –
3 | Nc1ccc(C(=O)NN2C(=O)C(Cl)C2c2cccc(O)c2)cc1 (stereo unspecified) | 29.5 µM | 39.3 µM | 41.9 µM | 34.6 µM | 23.3 µM | 29.7 µM | 3.29 µM | 29.9 µM | 40.2 µM | 35 µM | 24.3 µM | –
4 | COC(=O)C1=C(C)N(NC(=O)c2ccccc2)C2(O)CCCC(=O)C12C (stereo unspecified) | – | > 100 µM | > 100 µM | > 100 µM | > 100 µM | – | > 100 µM | > 100 µM | > 100 µM | > 100 µM | > 100 µM | –
5 | C/C(=C\Cc1cc(O)ccc1O)CCc1c(C)c(O)c(O)c(C=O)c1C | 62.2 µM | 92.8 µM | 85.6 µM | 34.4 µM | 74.6 µM | 53.3 µM | 21.4 µM | 43.2 µM | – | 98.8 µM | 32.4 µM | –
6 | CN(/N=N/c1nc[nH]c1C(N)=O)C1CCCCC1 | – | > 100 µM | – | > 100 µM | > 100 µM | > 100 µM | > 100 µM | > 100 µM | > 100 µM | – | > 100 µM | –
7 | C#CCSc1nc(N)c2ncn(C3OC(COP(=O)(O)O)C(O)C3O)c2n1 (stereo unspecified) | > 239 µM | > 239 µM | > 239 µM | > 239 µM | > 239 µM | > 239 µM | > 239 µM | > 239 µM | > 239 µM | > 239 µM | – | –
8 | COC1=CC(=O)c2c(O)c3c(c(O)c2C1=O)C[C@](C)(O)C[C@@H]3O | 46.7 µM | 9.81 µM | 45.5 µM | 4.96 µM | 8.37 µM | 6.84 µM | 12.4 µM | 5.29 µM | 16.3 µM | 26.9 µM | 14.9 µM | 81.4 µM
9 | CC(=O)Nc1ccc(C(=O)NN2C(=O)C(Cl)C2c2ccc(O)cc2)cc1 (stereo unspecified) | > 100 µM | > 100 µM | > 100 µM | > 100 µM | > 100 µM | > 100 µM | > 100 µM | > 100 µM | > 100 µM | > 100 µM | > 100 µM | –
10 | CCCCc1c2c(nc3c1CCc1cc4cc5c(nc4nc1-3)-c1nc3c(c(CCCC)c1CC5)CCC/C3=C\c1ccccc1)/C(=C/c1ccccc1)CCC2 | > 100 µM | > 100 µM | – | > 100 µM | > 100 µM | > 100 µM | > 100 µM | > 100 µM | > 100 µM | > 100 µM | > 100 µM | –
11 | C=CCC1(CC)C(=O)NC(=O)NC1=O | > 100 µM | > 100 µM | – | > 100 µM | > 100 µM | > 100 µM | > 100 µM | > 100 µM | > 100 µM | > 100 µM | > 100 µM | –
12 | COc1cccc(NC(=O)CC(=O)NNCC(=O)Nc2nnc(-c3ccc(N(CCC#N)S(=O)(=O)c4ccccc4)cc3)s2)c1 | – | > 100 µM | > 100 µM | > 100 µM | > 100 µM | – | > 100 µM | > 100 µM | > 100 µM | > 100 µM | > 100 µM | –
